Test results taken from article PMC9814568, “Peptide transporter structure reveals binding and action mechanism of a potent PEPT1 and PEPT2 inhibitor” (Communications Chemistry, 2022).

Legend:
YePEPT [1] = biological target: T1, YePEPT (Yersinia enterocolitica, UniProt A0A2R9TD79, K314A/S412A); assay: label-free DSF thermal shift at […] LZNV (no Kd); format: binding
T1 construct: gene YEP4_02370; YePEPT^K314A-S412A, detergent-purified, His-tagged

YePEPT [2] = biological target: T2, YePEPT (Yersinia enterocolitica, UniProt A0A2R9TD79, K314A); assay: co-crystal structure at […] Å; also thermal shift; IC50 from [3H]Ala-Ala uptake in E. coli cells; format: cell-based
T2 construct: gene YEP4_02370; YePEPT-K314A, C-terminal HRV3C site and His10 tag (cleaved for crystallisation)
T2 sequence (A0A2R9TD79 1-511 K314A): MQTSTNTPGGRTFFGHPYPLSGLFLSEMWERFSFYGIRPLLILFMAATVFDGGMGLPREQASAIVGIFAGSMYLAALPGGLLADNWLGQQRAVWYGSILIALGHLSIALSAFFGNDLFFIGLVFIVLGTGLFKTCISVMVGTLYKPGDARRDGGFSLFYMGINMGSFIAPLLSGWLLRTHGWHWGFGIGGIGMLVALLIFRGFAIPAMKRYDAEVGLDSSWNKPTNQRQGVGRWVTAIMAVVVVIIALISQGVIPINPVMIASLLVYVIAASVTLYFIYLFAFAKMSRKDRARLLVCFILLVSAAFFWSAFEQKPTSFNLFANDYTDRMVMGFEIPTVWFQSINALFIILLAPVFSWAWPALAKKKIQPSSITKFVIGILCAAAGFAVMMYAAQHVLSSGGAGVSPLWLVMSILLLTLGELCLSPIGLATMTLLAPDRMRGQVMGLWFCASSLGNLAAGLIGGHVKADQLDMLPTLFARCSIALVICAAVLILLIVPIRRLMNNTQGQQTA

YePEPT [3] = biological target: T3, YePEPT (Yersinia enterocolitica, UniProt A0A2R9TD79, K314Q/P315G); assay: label-free DSF thermal shift at […] LZNV (no Kd); format: binding
T3 construct: gene YEP4_02370; YePEPT^K314Q-P315G, detergent-purified, His-tagged

[4] = test system: C[C@H](N)C(=O)N[C@@H](C)C(=O)O; assay: [3H]Ala-Ala uptake kinetics (Km) in E. coli cells overexpressing the transporter; format: cell-based, Yersinia enterocolitica

## CC(C)[C@H](NC(=O)[C@@H](N)CCCCNC(=O)OCc1ccc([N+](=O)[O-])cc1)C(=O)O [LZNV, Lys[Z(NO2)]-Val]
YePEPT [1]
  label-free DSF thermal shift at 200-800 μM LZNV (no Kd): YePEPT^K314A-S412A still showed a strong dose-dependent stabilisation by LZNV
YePEPT [2]
  IC50: 7.6 µM
YePEPT [3]
  label-free DSF thermal shift at 200-800 μM LZNV (no Kd): This variant shows a concentration-dependent stabilisation by LZNV similar to YePEPT^K314A

## YePEPT (Yersinia enterocolitica subsp. palearctica YE-P4; K314A)
[4]
  Km: 57.3 µM
